Data reported in patent US9187467B2, “2-phenyl benzothiazole linked imidazole compounds as potential anticancer agents and process for the preparation thereof” (Council of Scientific and Industrial Research, priority 2012, dated 2015).

Tests used:
[1] = test system: SR; assay: SRB anticancer assay, leukemia; format: cell-based, human; settings: Homo sapiens, 48 h
[2] = test system: A549/ATCC; assay: SRB anticancer assay, non-small lung; format: cell-based, human; parameters: Log10GI50: unit not given here; settings: for GI50: Homo sapiens, 48 h
[3] = test system: NCI-H226; assay: SRB anticancer assay, non-small lung; format: cell-based, human; settings: Homo sapiens, NCI-H226, 48 h
[4] = test system: NCI-H23; assay: SRB anticancer assay, non-small lung; format: cell-based, human; settings: for GI50: Homo sapiens, NCI-H23, 48 h
[5] = test system: NCI-H322M; assay: SRB anticancer assay, non-small lung; format: cell-based, human; settings: Homo sapiens, 48 h
[6] = test system: NCI-H460; assay: SRB anticancer assay, non-small lung; format: cell-based, human; settings: Homo sapiens, NCI-H460, 48 h
[7] = test system: NCI-H522; assay: SRB anticancer assay, non-small lung; format: cell-based, human; parameters: Log10GI50: unit not given here; settings: for GI50: Homo sapiens, NCI-H522, 48 h
[8] = test system: HT29; assay: SRB anticancer assay, colon; format: cell-based, human; settings: Homo sapiens, HT-29; HT29, 48 h
[9] = test system: KM12; assay: SRB anticancer assay, colon; format: cell-based, human; settings: Homo sapiens, KM12, 48 h
[10] = test system: SF-268; assay: SRB anticancer assay, CNS; format: cell-based, human; parameters: Log10GI50: unit not given here
[11] = test system: SF-295; assay: SRB anticancer assay, CNS; format: cell-based, human; parameters: Log10GI50: unit not given here; settings: for GI50: Homo sapiens, SF-295, 48 h
[12] = test system: SF-539; assay: SRB anticancer assay, CNS; format: cell-based, human; parameters: Log10GI50: unit not given here; settings: for GI50: Homo sapiens, SF-539, 48 h
[13] = test system: IGROV1; assay: SRB anticancer assay, ovarian; format: cell-based, human; settings: Homo sapiens, IGROV-1; IGROV1, 48 h
[14] = test system: OVCAR-3; assay: SRB anticancer assay, ovarian; format: cell-based, human; parameters: Log10GI50: unit not given here; settings: for GI50: Homo sapiens, OVCAR-3, 48 h
[15] = test system: OVCAR-4; assay: SRB anticancer assay, ovarian; format: cell-based, human; settings: Homo sapiens, OVCAR-4, 48 h
[16] = test system: OVCAR-8; assay: SRB anticancer assay, ovarian; format: cell-based, human; parameters: Log10GI50: unit not given here; settings: for GI50: Homo sapiens, OVCAR-8, 48 h
[17] = test system: NCI/ADR-RES; assay: SRB anticancer assay, ovarian; format: cell-based, human; parameters: Log10GI50: unit not given here; settings: for GI50: Homo sapiens, NCI/ADR-RES, 48 h; for Log10GI50: present compounds
[18] = test system: SK-OV-3; assay: SRB anticancer assay, ovarian; format: cell-based, human; settings: Homo sapiens, SK-OV-3, 48 h
[19] = test system: A498; assay: SRB anticancer assay, renal; format: cell-based, human; parameters: Log10GI50: unit not given here; settings: for GI50: Homo sapiens, A498, 48 h
[20] = test system: ACHN; assay: SRB anticancer assay, renal; format: cell-based, human; parameters: Log10GI50: unit not given here; settings: for GI50: Homo sapiens, 48 h
[21] = test system: SN12C; assay: SRB anticancer assay, renal; format: cell-based, human; parameters: Log10GI50: unit not given here; settings: for GI50: Homo sapiens, 48 h
[22] = test system: TK-10; assay: SRB anticancer assay, renal; format: cell-based, human; settings: Homo sapiens, TK-10, 48 h
[23] = test system: PC-3; assay: SRB anticancer assay, prostate; format: cell-based, human; parameters: Log10GI50: unit not given here; settings: for GI50: Homo sapiens, PC-3, 48 h
[24] = test system: MCF7; assay: SRB anticancer assay, breast; format: cell-based, human; settings: Homo sapiens, MCF7, 48 h
[25] = test system: HS 578T; assay: SRB anticancer assay, breast; format: cell-based, human; settings: Homo sapiens, 48 h
[26] = test system: T-47D; assay: SRB anticancer assay, breast; format: cell-based; settings: Homo sapiens, T47D, 48 h
[27] = test system: LOX IMVI; assay: SRB anticancer assay, melanoma; format: cell-based, human; parameters: Log10GI50: unit not given here; settings: for GI50: Homo sapiens, 48 h
[28] = test system: SK-MEL-28; assay: SRB anticancer assay, melanoma; format: cell-based, human; parameters: Log10GI50: unit not given here
[29] = test system: SK-MEL-5; assay: SRB anticancer assay, melanoma; format: cell-based, human; settings: Homo sapiens, SK-MEL-5, 48 h
[30] = test system: UACC-257; assay: SRB anticancer assay, melanoma; format: cell-based, human; settings: for GI50: Homo sapiens, UACC-257, 48 h
[31] = test system: UACC-62; assay: SRB anticancer assay, melanoma; format: cell-based, human; settings: for GI50: Homo sapiens, UACC-62, 48 h
[32] = test system: K562 (Leukemia) cells; assay: Cell cycle distribution by flow cytometry; format: cell-based
Method: (§1) In order to investigate the mechanism underlying the anti-proliferative effect of the compounds the cell cycle distribution was analyzed in K562 (Leukemia) and MCF-7 (Breast carcinoma) cell lines by flow cytometry. Compounds CA-4, 21a, 21d, 4c, 6d, 6e, 6f, 7d, 7h and 7j have shown 1.72%, 14%, 12%, 14%, 12%, 14%, 14%, 16%, 16% &12% in K562 cells and 49.63%, 21%, 20%, 18%, 21%, 21%, 21%, 24%, 23% and 23% in MCF-7 cell line respectively. […] Thus compound 7d was considered for further studies (FIG. 1).

[33] = test system: MCF-7 (Breast carcinoma) cells; assay: Cell cycle distribution by flow cytometry (FACS); format: cell-based; settings: MCF-7 cells, 2 μM, 24h
Method: FIG. 1 represents FACS analysis of cell cycle distribution of MCF-7 cells after treatment with compounds CA-4, 21a, 21d, 4c, 6d, 6e, 6f, 7d, 7h and 7j at 2 μM concentration for 24h and control cells are the cells treated with DMSO (0.25%).
as §1

COc1cc(-c2cncn2-c2ccc(-c3nc4ccc(F)cc4s3)cc2)ccc1F [Compound 4c, 6-Fluoro-2-(4-(5-(4-fluoro-3-methoxyphenyl)-1H-imidazol-1-yl)phenyl)benzo[d]thiazole]
GI50 [1]: 4.99 µM
GI50 [2]: 12.3 µM
Log10GI50 ([2]; present compounds): −4.91
GI50 [3]: 49.3 µM
GI50 [4]: 8.25 µM
Log10GI50 ([4]; NCI-H23, present compounds): −5.08 log10(M)
GI50 [5]: 36.3 µM
GI50 [6]: 5.7 µM
GI50 [7]: 9.9 µM
Log10GI50 ([7]; NCI-H522, present compounds): −5.00
GI50 [8]: 10.8 µM
GI50 [9]: 6.4 µM
GI50 ([10]; Homo sapiens, SF-268, 48 h): 12.7 µM
Log10GI50 ([10]; SF-268, present compounds): −4.51
GI50 [11]: 75.9 µM
Log10GI50 ([11]; SF-295, present compounds): −4.90
GI50 [12]: > 100 µM
Log10GI50 ([12]; SF-539, present compounds): −4.12
GI50 [13]: 15.4 µM
GI50 [14]: 5.71 µM
Log10GI50 ([14]; OVCAR-3, present compounds): −5.24
GI50 [15]: 11.4 µM
GI50 [16]: 15.2 µM
Log10GI50 ([16]; OVCAR-8, present compounds): −4.82
GI50 [17]: 30.6 µM
Log10GI50 ([17]; NCI/ADR-RES (row head NCI/ADR-)): −4.51
Log10GI50 ([17]; listed as head printed RES (second line of NCI/ADR-RES)): >−4.0
GI50 [18]: > 100 µM
Log10GI50 ([19]; A498, present compounds): −7.36
GI50 [19]: 0.0432 µM
GI50 [20]: 29.1 µM
Log10GI50 ([20]; present compounds): −4.54
GI50 [21]: 31.9 µM
Log10GI50 ([21]; present compounds): −4.50
GI50 [22]: 38.8 µM
GI50 [23]: 3.47 µM
Log10GI50 ([23]; PC-3, present compounds): −5.46
GI50 [24]: 23.5 µM
GI50 [25]: 11.5 µM
GI50 [26]: 11.1 µM
GI50 [27]: 35.9 µM
Log10GI50 ([27]; present compounds): −4.44
GI50 ([28]; Homo sapiens, SK-MEL-28, 48 h): 35.1 µM
Log10GI50 ([28]; SK-MEL-28, present compounds): −4.45
GI50 [29]: 12.1 µM
GI50 [30]: 4.11 µM
Log10GI50 ([30]; UACC-257, present compounds): −5.39 log10(M)
GI50 [31]: 8.67 µM
Log10GI50 ([31]; UACC-62, present compounds): −5.06 log10 M
cells in G2/M phase [32]: 14%
cells in G2/M phase [33]: 18%

COc1cc(OC)c2sc(-c3ccc(-n4cncc4-c4cc(OC)c(OC)c(OC)c4)cc3)nc2c1 [Compound 6f, 5,7-Dimethoxy-2-(4-(5-(3,4,5-trimethoxyphenyl)-1H-imidazol-1-yl)phenyl)benzo[d]thiazole]
GI50 [1]: 3.24 µM
GI50 [2]: 6.16 µM
GI50 [4]: 6.15 µM
GI50 [5]: > 100 µM
GI50 [6]: 4.67 µM
GI50 [7]: 3.27 µM
GI50 [8]: 4.88 µM
GI50 [9]: 4.62 µM
GI50 [11]: 4.42 µM
GI50 [12]: 8.59 µM
GI50 [13]: 5.87 µM
GI50 [14]: 3.26 µM
GI50 [15]: 3.25 µM
GI50 [16]: > 100 µM
GI50 [17]: 5.65 µM
GI50 [18]: > 100 µM
GI50 [19]: 1.83 µM
GI50 [20]: 6.67 µM
GI50 [21]: > 100 µM
GI50 [22]: 9.4 µM
GI50 [23]: 2.54 µM
GI50 [24]: 3.88 µM
GI50 [25]: 5.23 µM
GI50 [26]: 3.27 µM
GI50 [27]: 5.4 µM
GI50 [29]: 2.46 µM
GI50 [30]: > 100 µM
GI50 [31]: 4.14 µM
cells in G2/M phase [32]: 14%
cells in G2/M phase [33]: 21%
